Tests used:
Rat [1] = experiment: concentration in plasma after dosing; settings: dosed: Isoeugenol, 17 mg/kg, oral, Female, F344/N
Rat [2] = experiment: concentration in plasma after dosing; settings: 10 min; dosed: Isoeugenol; 17 mg/kg; oral; Male; F344/N
Rat [3] = experiment: concentration in plasma after dosing; settings: dosed: Isoeugenol, 70 mg/kg, oral, Male, F344/N
Rat [4] = experiment: concentration in plasma after dosing; settings: dosed: Isoeugenol, 17 mg/kg, oral, Female, F344/N; remark: listed apart in the source
Rat [5] = experiment: concentration in plasma after dosing
rat [6] = experiment: concentration in blood after dosing; settings: male
Rat [7] = experiment: concentration in plasma after dosing; settings: dosed: Tetralin, 20 mg/kg, iv, Female, Harlan Sprague Dawley
Rat [8] = experiment: concentration in plasma after dosing; settings: dosed: Tetralin, 2 mg/kg, iv, Male, Harlan Sprague Dawley
Rat [9] = experiment: concentration in plasma after dosing; settings: dosed: Tetralin, 2 mg/kg, iv, Male, F344
Rat [10] = experiment: concentration in plasma after dosing; settings: dosed: Tetralin, 2 mg/kg, iv, Male, F344; remark: listed apart in the source
Rat [11] = experiment: concentration in plasma after dosing; settings: dosed: Tetralin, 20 mg/kg, iv, Female, Harlan Sprague Dawley; remark: listed apart in the source
Rat [12] = experiment: concentration in plasma after dosing; settings: dosed: Tetralin, 2 mg/kg, iv, Male, Harlan Sprague Dawley; remark: listed apart in the source

C/C=C/c1ccc(O)c(OC)c1 [Isoeugenol]
Settings	concentration in plasma [ng/mL]
Rat [1], 0.75 h	52.2
Rat [1], 3 h	16.3
Rat [3], 2 min	74.6
Rat [3], 6 h	84.5
Rat [4], 5 min	375
Rat [4], 6 h	160

Settings	concentration in plasma [ng/mL]
Rat [2]	209

concentration in plasma [ng/mL], Rat [5], dosed: Isoeugenol, oral, F344/N
Settings	Female	Male
0.5 h, 17 mg/kg	155	87.8
0.5 h, 70 mg/kg	–	312
0.75 h, 17 mg/kg	73.5	73
1 h, 17 mg/kg	57.7	34.4
1.5 h, 17 mg/kg	–	26.5
1.5 h, 70 mg/kg	–	118
2 h, 17 mg/kg	27.7	–
2 min, 17 mg/kg	48.3	53.9
2 min, 70 mg/kg	–	1160
3 h, 17 mg/kg	48.1	–
3 h, 70 mg/kg	–	216
4 h, 17 mg/kg	35.3	37.5
5 h, 17 mg/kg	50.1	–
5 h, 70 mg/kg	–	199
5 min, 17 mg/kg	346	141
5 min, 70 mg/kg	–	683
6 h, 17 mg/kg	32.7	27.6
6 h, 70 mg/kg	–	150
8 h, 17 mg/kg	38.5	–
8 h, 70 mg/kg	–	362
10 min, 17 mg/kg	161	148
10 min, 70 mg/kg	–	499
20 min, 17 mg/kg	358	86.1
20 min, 70 mg/kg	–	672

[3H][3H] [[3]H]
rat [6], dosed: benzo[a]pyrene, Sprague Dawley
Settings	concentration in blood [nM]
0 h, 1.70 nmol, iv	37.2
0 h, 3.20 nmol, oral	0.288
0 h, 4 nmol, oral	0.112
0.1116 h, 1.70 nmol, iv	12
0.1125 h, 1.70 nmol, iv	18.1
0.1153 h, 1.70 nmol, iv	8.27
0.1252 h, 1.70 nmol, iv	3.03
0.1473 h, 1.70 nmol, iv	12.7
0.1638 h, 4 nmol, oral	0.0356
0.1807 h, 4 nmol, oral	0.233
0.182 h, 1.70 nmol, iv	8.84
0.2047 h, 3.20 nmol, oral	0.443
0.3049 h, 1.70 nmol, iv	3.66
0.3458 h, 1.70 nmol, iv	3.2
0.4131 h, 3.20 nmol, oral	0.622
0.4184 h, 4 nmol, oral	0.364
0.4356 h, 4 nmol, oral	0.0332
0.443 h, 3.20 nmol, oral	0.188
0.6282 h, 4 nmol, oral	0.444
0.6407 h, 1.70 nmol, iv	2.67
0.6517 h, 3.20 nmol, oral	0.22
0.6678 h, 4 nmol, oral	0.0641
0.6836 h, 3.20 nmol, oral	0.741
0.6859 h, 1.70 nmol, iv	1.6
0.8687 h, 4 nmol, oral	0.516
0.9146 h, 1.70 nmol, iv	2.27
0.9355 h, 1.70 nmol, iv	0.81
0.9369 h, 4 nmol, oral	0.0732
0.9512 h, 3.20 nmol, oral	0.245
0.9543 h, 3.20 nmol, oral	0.873
1.04 h, 3.20 nmol, oral	0.279
1.135 h, 3.20 nmol, oral	0.947
1.371 h, 1.70 nmol, iv	1.8
1.4 h, 3.20 nmol, oral	0.297
1.416 h, 1.70 nmol, iv	0.882
1.435 h, 3.20 nmol, oral	1.17
1.639 h, 3.20 nmol, oral	0.347
1.858 h, 1.70 nmol, iv	1.32
1.88 h, 1.70 nmol, iv	0.331
1.886 h, 4 nmol, oral	0.208
1.95 h, 3.20 nmol, oral	1.17
2.33 h, 3.20 nmol, oral	0.383
2.464 h, 3.20 nmol, oral	1.19
2.498 h, 4 nmol, oral	0.817
3.067 h, 3.20 nmol, oral	1.37
3.756 h, 3.20 nmol, oral	0.16
3.763 h, 4 nmol, oral	0.0925
3.824 h, 1.70 nmol, iv	1.31
3.841 h, 1.70 nmol, iv	0.238
4.13 h, 4 nmol, oral	0.9
4.75 h, 3.20 nmol, oral	0.144
4.761 h, 3.20 nmol, oral	1.39
5.695 h, 4 nmol, oral	0.059
5.72 h, 3.20 nmol, oral	0.0876
5.758 h, 3.20 nmol, oral	1.58
5.767 h, 1.70 nmol, iv	0.231
5.852 h, 1.70 nmol, iv	1.2
7.678 h, 3.20 nmol, oral	0.0754
7.696 h, 3.20 nmol, oral	1.38
8.636 h, 1.70 nmol, iv	1.06
8.719 h, 1.70 nmol, iv	0.195
9.661 h, 3.20 nmol, oral	1.58
9.666 h, 3.20 nmol, oral	0.0665
11.66 h, 4 nmol, oral	0.971
11.69 h, 3.20 nmol, oral	1.46
11.71 h, 3.20 nmol, oral	0.0645
11.72 h, 4 nmol, oral	0.0461
12.06 h, 1.70 nmol, iv	0.983
23.76 h, 4 nmol, oral	0.0211
23.79 h, 3.20 nmol, oral	0.0341
23.82 h, 3.20 nmol, oral	1.25
23.82 h, 4 nmol, oral	0.858
28.68 h, 1.70 nmol, iv	0.0889
29.09 h, 1.70 nmol, iv	0.82
31.89 h, 3.20 nmol, oral	0.0299
153 s, 1.70 nmol, iv	38.5
172 s, 1.70 nmol, iv	16.8
225 s, 4 nmol, oral	0.176
238 s, 3.20 nmol, oral	0.0632
265 s, 1.70 nmol, iv	26.5
278 s, 1.70 nmol, iv	26.9
297 s, 3.20 nmol, oral	0.492
321 s, 3.20 nmol, oral	0.107
331 s, 4 nmol, oral	0.194

c1ccc2c(c1)CCCC2 [Tetralin]
Settings	concentration in plasma [µg/g]
Rat [7], 0.75 h	2.18
Rat [7], 12 h	0.0369
Rat [8], 1 h	0.0468
Rat [8], 24 h	0.00083
Rat [9], 0.25 h	0.386
Rat [9], 6 h	0.0061
Rat [10], 0.2517 h	0.63
Rat [10], 6 h	0.00762
Rat [11], 0.75 h	2.33
Rat [11], 12 h	0.0285
Rat [12], 0.2533 h	0.406
Rat [12], 6 h	0.00586

concentration in plasma [µg/g], Rat [5], dosed: Tetralin, iv
Settings	F344	Harlan Sprague Dawley
0.25 h, 20 mg/kg, Female	–	9.76
0.2517 h, 2 mg/kg, Male	0.888	–
0.2533 h, 2 mg/kg, Male	–	0.449
0.5033 h, 20 mg/kg, Female	–	2.55
0.505 h, 2 mg/kg, Male	–	0.207
0.5067 h, 2 mg/kg, Male	0.254	–
0.75 h, 2 mg/kg, Male	0.107	0.0681
0.75 h, 20 mg/kg, Female	–	2.11
1 h, 2 mg/kg, Male	0.11	0.0492
1 h, 20 mg/kg, Female	–	2.1
2 h, 2 mg/kg, Male	0.0262	0.0157
2 h, 20 mg/kg, Female	–	0.596
4 h, 2 mg/kg, Male	0.0114	0.0103
4 h, 20 mg/kg, Female	–	0.2
4 h, 20 mg/kg, Male	0.158	–
6 h, 2 mg/kg, Male	0.00667	0.00504
6.017 h, 20 mg/kg, Female	–	0.105
8 h, 2 mg/kg, Male	0.00488	0.00316
8 h, 20 mg/kg, Female	–	0.0424
12 h, 2 mg/kg, Male	0.00332	0.00151
12 h, 20 mg/kg, Female	–	0.0371
24 h, 2 mg/kg, Male	0.00081	–
24 h, 20 mg/kg, Female	–	0.00866
301 s, 20 mg/kg, Male	21	–
303 s, 20 mg/kg, Female	–	23.1
307 s, 2 mg/kg, Male	–	1.68
322 s, 2 mg/kg, Male	1.64	–

C=Cc1ccccc1 [styrene]
rat [6], dosed: styrene, 3000 ppm, dermal, duration: 4 hr, F344
Settings	concentration in blood [ng/mL]
0.5 h	1480
1 h	2090
2 h	4160
3 h	6070
4 h	7610
